Measured values from ChEMBL document CHEMBL1201862, “PubChem BioAssay data set” (2004).
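Growth conditions: 96-well plates. Treatment: test compound, 48 hours, 5 concentrations. Analysis: linear interpolation between bracketing concentrations; unreached endpoints set to highest concentration. GI50 marks 50% less growth.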 Activity calls are given as the source filed them. Rule as the data show it: active = GI50 up to about 1.1 µM and inactive = higher.

Key:
Assay in all cases: NCI anticancer screen, dose series, 48 h
RXF 393 = test system: RXF 393
UACC-62 = test system: UACC-62
Malme-3M = test system: Malme-3M
HCC 2998 = test system: HCC 2998
MOLT-4 = test system: MOLT-4
OVCAR-5 = test system: OVCAR-5
CAKI-1 = test system: CAKI-1
OVCAR-8 = test system: OVCAR-8
SK-MEL-5 = test system: SK-MEL-5
HOP-92 = test system: HOP-92
SF-539 = test system: SF-539
LXFL 529 = test system: LXFL 529
K562 = test system: K562
SNB-75 = test system: SNB-75
COLO 205 = test system: COLO 205
TK-10 = test system: TK-10
A549 = test system: A549
UACC-257 = test system: UACC-257
SF-268 = test system: SF-268
ACHN = test system: ACHN

Compound	GI50 (RXF 393)	GI50 (UACC-62)	GI50 (Malme-3M)	GI50 (HCC 2998)	GI50 (MOLT-4)	GI50 (OVCAR-5)	GI50 (CAKI-1)	GI50 (OVCAR-8)	GI50 (SK-MEL-5)	GI50 (HOP-92)	GI50 (SF-539)	GI50 (LXFL 529)	GI50 (K562)	GI50 (SNB-75)	GI50 (COLO 205)	GI50 (TK-10)	GI50 (A549)	GI50 (UACC-257)	GI50 (SF-268)	GI50 (ACHN)
Cc1c(N)nc(C(CC(N)=O)NCC(N)C(N)=O)nc1C(=O)NC(C(=O)NC(C)C(O)C(C)C(=O)NC(C(=O)NCCc1nc(-c2nc(C(=O)NCCCNC(C)c3ccccc3)cs2)cs1)C(C)O)C(OC1OC(CO)C(O)C(O)C1OC1OC(CO)C(O)C(OC(N)=O)C1O)c1c[nH]cn1 (stereo not drawn)	0.156 µM (active)	0.706 µM (active)	1.42 µM (inactive)	21.6 µM (inactive)	1.83 µM (inactive)	5.96 µM (inactive)	0.0258 µM (active)	5.11 µM (inactive)	1.05 µM (active)	0.19 µM (active)	0.0233 µM (active)	23.9 µM (inactive)	10.1 µM (inactive)	0.296 µM (active)	11.3 µM (inactive)	40.5 µM (inactive)	0.847 µM (active)	22.3 µM (inactive)	2.9 µM (inactive)	0.0208 µM (active)
O=C1C=CC(=O)c2c(O)ccc(O)c21 [NAPHTHAZALIN]	1.03 µM (active)	1.48 µM (inactive)	1.18 µM (inactive)	4.66 µM (inactive)	0.15 µM (active)	6.95 µM (inactive)	1.27 µM (inactive)	0.91 µM (active)	2.14 µM (inactive)	1.69 µM (inactive)	2.49 µM (inactive)	0.535 µM (active)	0.425 µM (active)	2.09 µM (inactive)	0.807 µM (active)	1.26 µM (inactive)	8.95 µM (inactive)	1.07 µM (active)	2.52 µM (inactive)	1.21 µM (inactive)
Cc1cccc(N2C(=O)C(Cl)=C(Cl)C2=O)c1	16.5 µM (inactive)	> 64.7 µM (inactive)	> 42.1 µM (inactive)	> 100 µM (inactive)	33.9 µM (inactive)	> 100 µM (inactive)	> 42.3 µM (inactive)	> 100 µM (inactive)	> 100 µM (inactive)	> 53.8 µM (inactive)	> 100 µM (inactive)	> 41.6 µM (inactive)	35.3 µM (inactive)	> 100 µM (inactive)	> 69 µM (inactive)	> 66.8 µM (inactive)	> 100 µM (inactive)	> 100 µM (inactive)	97.3 µM (inactive)	> 49.1 µM (inactive)
Oc1cc(O)c(Oc2cccc(O)c2O)c(O)c1	> 100 µM (inactive)	35.6 µM (inactive)	> 100 µM (inactive)	> 100 µM (inactive)	> 100 µM (inactive)	> 100 µM (inactive)	> 100 µM (inactive)	> 100 µM (inactive)	18.6 µM (inactive)	> 100 µM (inactive)	> 100 µM (inactive)	> 100 µM (inactive)	35 µM (inactive)	45.8 µM (inactive)	> 100 µM (inactive)	> 100 µM (inactive)	> 100 µM (inactive)	> 100 µM (inactive)	> 100 µM (inactive)	> 100 µM (inactive)
COc1ccc(OC)c(NC(=O)C2=C(C)NC(C)=C(C(=O)Nc3cc(OC)ccc3OC)C2c2ccccc2)c1	> 100 µM (inactive)	> 100 µM (inactive)	> 100 µM (inactive)	> 100 µM (inactive)	6.5 µM (inactive)	> 100 µM (inactive)	> 100 µM (inactive)	> 100 µM (inactive)	51.3 µM (inactive)	6.41 µM (inactive)	> 100 µM (inactive)	> 100 µM (inactive)	83 µM (inactive)	22.8 µM (inactive)	> 100 µM (inactive)	> 100 µM (inactive)	85.1 µM (inactive)	> 100 µM (inactive)	63.7 µM (inactive)	30 µM (inactive)
BrC(Br)([P+](c1ccccc1)(c1ccccc1)c1ccccc1)[P+](c1ccccc1)(c1ccccc1)c1ccccc1	11.1 µM (inactive)	14.6 µM (inactive)	12.5 µM (inactive)	17.4 µM (inactive)	7.91 µM (inactive)	21.6 µM (inactive)	7.98 µM (inactive)	13.1 µM (inactive)	15.9 µM (inactive)	11.1 µM (inactive)	13.6 µM (inactive)	15.2 µM (inactive)		19.4 µM (inactive)	16.4 µM (inactive)	14.1 µM (inactive)	26.3 µM (inactive)	19.5 µM (inactive)	24 µM (inactive)	17.7 µM (inactive)
Cc1c(N)nc([C@H](CC(N)=O)NC[C@H](N)C(N)=O)nc1C(=O)N[C@H](C(=O)N[C@H](C)[C@@H](O)[C@H](C)C(=O)N[C@H](C(=O)NCCc1nc(-c2nc(C(=O)NCCC[S+](C)C)cs2)cs1)[C@@H](C)O)C(OC1OC(CO)C(O)C(O)C1OC1OC(CO)C(O)C(OC(N)=O)C1O)c1c[nH]cn1 (stereo partly drawn)	0.236 µM (active)	0.451 µM (active)	0.356 µM (active)	9.62 µM (inactive)	1.28 µM (inactive)	2.35 µM (inactive)	0.0379 µM (active)	3.26 µM (inactive)	0.776 µM (active)	0.0841 µM (active)	0.02 µM (active)	16.9 µM (inactive)	8.45 µM (inactive)	0.426 µM (active)	6.05 µM (inactive)	10.8 µM (inactive)	0.716 µM (active)	12 µM (inactive)	1.15 µM (inactive)	0.00802 µM (active)
O=C(c1ccccc1)c1c(C(=O)c2ccccc2)c(-c2ccccc2)c2c(-c3ccccc3)sc(-c3ccccc3)c2c1-c1ccccc1	> 100 µM (inactive)	> 100 µM (inactive)	> 100 µM (inactive)	> 100 µM (inactive)		> 100 µM (inactive)	> 100 µM (inactive)	> 100 µM (inactive)	> 100 µM (inactive)	> 100 µM (inactive)	> 100 µM (inactive)	> 100 µM (inactive)	> 100 µM (inactive)	> 100 µM (inactive)	> 100 µM (inactive)	> 100 µM (inactive)	> 100 µM (inactive)	> 100 µM (inactive)	> 100 µM (inactive)	> 100 µM (inactive)
CC[P+]1(c2ccccc2)CCCCC1	> 100 µM (inactive)	> 100 µM (inactive)	> 100 µM (inactive)	> 100 µM (inactive)	> 100 µM (inactive)	> 100 µM (inactive)	> 100 µM (inactive)	> 100 µM (inactive)	> 100 µM (inactive)	> 100 µM (inactive)	> 100 µM (inactive)	> 100 µM (inactive)	> 100 µM (inactive)	> 100 µM (inactive)	> 100 µM (inactive)	> 100 µM (inactive)	> 100 µM (inactive)	> 100 µM (inactive)	> 100 µM (inactive)	> 100 µM (inactive)
COc1cc2cnc3c4cc(O)ccc4ccc3c2cc1OC	46.5 µM (inactive)	72.4 µM (inactive)	51.1 µM (inactive)	91 µM (inactive)	31.1 µM (inactive)	> 100 µM (inactive)	> 100 µM (inactive)	23.6 µM (inactive)	> 100 µM (inactive)	> 100 µM (inactive)	63 µM (inactive)	6.08 µM (inactive)	19.7 µM (inactive)	22.6 µM (inactive)	12.9 µM (inactive)	> 100 µM (inactive)	> 100 µM (inactive)	56.6 µM (inactive)	23.6 µM (inactive)	> 100 µM (inactive)
